Assay results as given in US12522607B2, “Substituted pyrazolo[3,4-d]pyrimidines as wee-1 inhibitors” (WIGEN BIOMEDICINE TECHNOLOGY (SHANGHAI) CO., LTD., priority 2020, dated 2026).

Key:
HT29 cells = experiment: Antiproliferative activity against HT29 cells (Cell Titer-Lumi, ATP content); type: cell-based; conditions: Homo sapiens, HT-29, 72 after compound addition, read-out: HT-29 cells Anti-proliferative activity (IC50 for the inhibition against HT-29 cell growth)
Summary of the method: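 3000 cells per well, allowed to adhere overnight, then exposed to a gradient dilution of compound for 72 (units as printed). Cellular ATP read by luminescence (Cell Titer-Lumi) as a growth measure; IC50 for growth inhibition calculated.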

[1] = Pharmacokinetic evaluation in mice; type: in vivo, male ICR mice; conditions: for AUC(0-t) / clearance / half-life / Vd / Cmax / Tmax: male, ICR, mouse, plasma; for Vd: read-out: Vss; for F: po 10 mg/kg vs iv 2 mg/kg
Description: Example 344. Pharmacokinetic Evaluation in Mice
The compounds were administered by intravenous injection at a dose of 2 mg/kg and oral gavage at a dose of 10 mg/kg (0.5% CMC-Na suspension). 15 male ICR mice were selected for each group, and each mouse was subjected to blood collection at 3 discrete time points, with 3 mice at each time point. The time points of sampling were as follows: before administration, and 5 min, 15 min, 30 min, 1 h, 3 h, 5 h, 8 h, 12 h and 24 h after administration. 80 μL of blood was collected from the orbits or hearts of the mice at each time point after administration. All whole blood samples were collected in tubes containing EDTA K2 and centrifuged (1500-1600 rmp/min) at 4° C. for 10 min to isolate plasma, which was then stored in a refrigerator at −90° C. to −60° C. for sample analysis. The compound concentration in the plasma was determined by liquid chromatography-tandem mass spectrometry, and the corresponding pharmacokinetic parameters were obtained according to a plasma concentration-time curve.

Wee-1 kinase = molecular target: T1, Wee-1 kinase (Homo sapiens, UniProt P30291); experiment: Inhibitory activity against Wee-1 kinase (Lanthra Screen Wee-1 kinase kit, Tracer 178); type: binding; conditions: Wee-1 kinase 5 nM, Tracer 178 50 nM, 1 h room temperature
T1 construct: purchased Invitrogen
T1 sequence (P30291 whole entry): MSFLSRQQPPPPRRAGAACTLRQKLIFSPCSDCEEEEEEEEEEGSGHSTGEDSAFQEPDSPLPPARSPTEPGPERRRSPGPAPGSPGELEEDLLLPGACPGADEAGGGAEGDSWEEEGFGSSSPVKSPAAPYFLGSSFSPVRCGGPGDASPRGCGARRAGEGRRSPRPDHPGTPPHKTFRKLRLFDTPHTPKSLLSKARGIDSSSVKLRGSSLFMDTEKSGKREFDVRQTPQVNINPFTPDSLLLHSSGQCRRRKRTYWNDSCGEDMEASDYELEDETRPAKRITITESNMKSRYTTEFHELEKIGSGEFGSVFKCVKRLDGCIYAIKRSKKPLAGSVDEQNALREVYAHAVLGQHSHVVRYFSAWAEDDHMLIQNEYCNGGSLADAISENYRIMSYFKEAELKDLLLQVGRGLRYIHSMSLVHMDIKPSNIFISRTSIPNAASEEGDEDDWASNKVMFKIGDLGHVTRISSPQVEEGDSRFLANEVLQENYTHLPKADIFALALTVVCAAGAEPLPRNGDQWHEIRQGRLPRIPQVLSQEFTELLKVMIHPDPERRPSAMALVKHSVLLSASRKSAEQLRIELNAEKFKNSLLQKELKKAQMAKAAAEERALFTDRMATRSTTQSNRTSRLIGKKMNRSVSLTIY
Summary of the method: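 LanthaScreen binding format: Wee-1 kinase (5 nM final) with Eu-anti-GST antibody (2 nM final) and kinase Tracer 178 (50 nM final), compounds serially diluted in DMSO. 1 h at room temperature before reading. IC50 relative to DMSO control.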

[2] = po, 10 mg/kg, 0.5% CMC-Na suspension

| SMILES | IC50 (HT29 cells) [nM] | AUC(0-t) ([1]; iv, 2 mg/kg) [ng·h/mL] | clearance ([1]; iv, 2 mg/kg) [mL/min/kg] | half-life ([1]; iv, 2 mg/kg) [min] | Vd ([1]; iv, 2 mg/kg) [L/kg] | AUC(0-t) [1, 2] [ng·h/mL] | Cmax [1, 2] [ng/mL] | Tmax [1, 2] [min] | half-life [1, 2] [min] | F [1] [%] | IC50 (Wee-1 kinase) [nM] | oral absorption characteristics (in words) ([1]; compared with control drug AZD-1775) |
| --- | --- | --- | --- | --- | --- | --- | --- | --- | --- | --- | --- | --- |
| C=CCn1c(=O)c2cnc(Nc3ccc(N4CCN(C)CC4)cc3)nc2n1-c1cccc(C(C)(C)O)n1 [AZD-1775, reference compound] | ≤ 1000 | 152 | 220 | 18 | 3.51 | 215 | 247 | 30 | 87 | 28.3 |  |  |
| C=CCn1c(=O)c2cnc(Nc3ccc(N4CCN(C)CC4)cc3)nc2n1-c1ccc(=O)n(C(C)C)n1 [Compound 3] | ≤ 1000 | 736 | 45.3 | 43.1 | 1.8 | 1210 | 533 | 15 | 115 | 32.9 | ≤ 30 | good oral absorption characteristics |
